Data taken from patent publication US8921559B2, “4-substituted-cyclohexylamino-4-piperidinyl-acetamide antagonists of CCR2” (Janssen Pharmaceutica NV, priority 2010, dated 2014).
Counter-ions that a name gives are not always drawn.

Target: CCR2 (Homo sapiens (Human), UniProt P41597)
Test: MCP-1 Receptor Binding Assay in THP-1 Cells
Settings: 0.5 nM 125I labeled MCP-1, 2 hours at 30° C., average of the two most similar values where more than one IC50, read-out: Inhibition of MCP-1 Binding IC50 CCR2 Binding
Method: Compounds of the invention were subjected to various representative biological tests. […] MCP-1 Receptor Binding Assay in THP-1 Cells Human monocytic cell line THP-1 cells were obtained from American Type Culture Collection (Manassas, Va., USA). The THP-1 cells were grown in RPMI-1640 (RPMI: Roswell Park Memorial Institute Medium-cell culture growth media) supplemented with 10% fetal bovine serum in a humidified 5% CO2 atmosphere at 37° C. The cell density was maintained between […].
THP-1 (cells were incubated with 0.5 nM ^125I labeled MCP-1 (Perkin-Elmer Life Sciences, Inc. Boston, Mass.) in the presence of varying concentrations of either unlabeled MCP-1 (R & D Systems, Minneapolis, Minn.) or test compound for 2 hours at 30° C. in a 96 well plate. Cells were then harvested onto a filter plate, dried, and 20 μL of Microscint 20 was added to each well. Plates were counted in a TopCount NXT, Microplate Scintillation & Luminescence Counter (Perkin-Elmer Life Sciences, Inc. Boston, Mass.). Blank values (buffer only) were subtracted from all values and drug treated values were compared to vehicle treated values. 1 μM cold MCP-1 was used for nonspecific binding.

CCR2, sequence (P41597 other isoform, or with tags, fused parts or gaps isoform P41597-2): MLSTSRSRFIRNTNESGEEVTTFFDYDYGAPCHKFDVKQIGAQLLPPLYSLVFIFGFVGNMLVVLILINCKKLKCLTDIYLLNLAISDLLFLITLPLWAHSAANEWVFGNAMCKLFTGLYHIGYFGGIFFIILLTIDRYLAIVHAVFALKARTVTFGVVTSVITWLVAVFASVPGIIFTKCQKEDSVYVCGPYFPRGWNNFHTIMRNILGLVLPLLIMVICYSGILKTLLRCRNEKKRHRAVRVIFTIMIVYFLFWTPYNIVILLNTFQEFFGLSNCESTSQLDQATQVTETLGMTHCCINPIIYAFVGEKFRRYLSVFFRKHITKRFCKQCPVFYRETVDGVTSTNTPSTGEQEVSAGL

IC50 [nM]	SMILES
132	NC(=O)C(NC1CCC(c2c[nH]c3ncccc23)CC1)C1CCN(C(=O)/C=C/c2cc(F)c(F)c(F)c2)CC1 (stereo not drawn) [Example 44, 2-[4-(1H-pyrrolo[2,3-b]pyridin-3-yl)cyclohexyl]amino-2-[1-(trans-3,4,5-trifluorocinnamoyl)-piperidin-4-yl]-acetamide]
981	CN(C)C(=O)C(NC1CCC(c2c[nH]c3ccccc23)CC1)C1CCN(C(=O)/C=C/c2cc(F)c(F)c(F)c2)CC1 (stereo not drawn) [Example 54, N,N-Dimethyl-2-{[4-(1H-Indol-3-yl)-cyclohexylamino]-2-[1-(trans-3,4,5-trifluorocinnamoyl)-piperidin-4-yl]}-acetamide]
130	NC(=O)C(NC1CCC(c2c[nH]c3ccccc23)CC1)C1CCN(C(=O)Nc2ccc(C(F)(F)F)cc2)CC1 (centres unmarked) [Example 9, 2-[4-(1H-Indol-3-yl)-cyclohexylamino]-2-[N-(4-{trifluoromethyl}-phenyl)piperidine-1-carboxamid-4-yl]-acetamide]
190	NC(=O)C(NC1CCC(c2c[nH]c3ccccc23)CC1)C1CCN(C(=O)/C=C/c2ccccc2)CC1 (stereo not drawn) [Example 18, 2-[4-(1H-Indol-3-yl)-cyclohexylamino]-2-[1-(trans-cinnamoyl)piperidin-4-yl]-acetamide]
590	Cc1cccc(NC(=O)N2CCC(C(NC3CCC(c4c[nH]c5cccnc45)CC3)C(N)=O)CC2)c1 (centres unmarked) [Example 48, 2-[4-(1H-pyrrolo[3,2-b]pyridin-3-yl)cyclohexyl]amino-2-[N-(3-tolyl)piperidine-1-carboxamid-4-yl]-acetamide]
470	NC(=O)C(NC1CCC(c2c[nH]c3ccccc23)CC1)C1CCN(C(=O)Nc2ccc(Cl)c(Cl)c2)CC1 (single isomer, unassigned) [Example 4a, 2-[4-(1H-Indol-3-yl)-cyclohexylamino]-2-[N-(3,4-dichlorophenyl)piperidine-1-carboxamid-4-yl]-acetamide]
390	COC(=O)C(N[C@H]1CC[C@H](c2c[nH]c3ccccc32)CC1)C1CCN(C(=O)/C=C/c2cc(F)cc(F)c2)CC1 (stereo partly drawn) [Example 24, Methyl 2-[4-(1H-indol-3-yl)-trans-cyclohexylamino]-2-[1-(trans-3,5-difluorocinnamoyl)piperidin-4-yl]-acetate]
984	CNC(=O)C(NC1CCC(c2c[nH]c3ccccc23)CC1)C1CCN(C(=O)/C=C/c2cc(F)c(F)c(F)c2)CC1 (stereo not drawn) [Example 53, N-Methyl-2-{[4-(1H-Indol-3-yl)-cyclohexylamino]-2-[1-(trans-3,4,5-trifluorocinnamoyl)-piperidin-4-yl]}-acetamide]
264	NC(=O)C(NC1CCC(c2c[nH]c3ccccc23)CC1)C1CCN(C(=O)Nc2ccc(OC(F)(F)F)cc2)CC1 (centres unmarked) [Example 11, 2-[4-(1H-Indol-3-yl)-cyclohexylamino]-2-[N-(4-{trifluoromethoxy}-phenyl)piperidine-1-carboxamid-4-yl]-acetamide]
19	NC(=O)C(NC1CCC(c2c[nH]c3ccccc23)CC1)C1CCN(C(=O)/C=C/c2ccc(F)cc2)CC1 (stereo not drawn) [Example 6, 2-[4-(1H-Indol-3-yl)-cyclohexylamino]-2-[1-(trans-4-fluorocinnamoyl)-piperidin-4-yl]-acetamide]
83	NC(=O)C(N[C@H]1CC[C@H](c2c[nH]c3ccncc32)CC1)C1CCN(C(=O)/C=C/c2cc(F)c(F)c(F)c2)CC1 (stereo partly drawn) [Example 41, R,S-2-[trans-4-(1H-pyrrolo[3,2-c]pyridin-3-yl)cyclohexyl]amino-2-[1-(trans-3,4,5-trifluorocinnamoyl)-piperidin-4-yl]-acetamide]
120	NC(=O)C(NC1CCC(c2c[nH]c3ccccc23)CC1)C1CCN(C(=O)/C=C/c2ccc3c(c2)CCC3)CC1 (stereo not drawn) [Example 12, 2-[4-(1H-Indol-3-yl)-cyclohexylamino]-2-[1-(trans-3-indan-5-ylprop-2-enoyl)piperidin-4-yl]-acetamide]
40	NC(=O)C(NC1CCC(c2c[nH]c3ccncc23)CC1)C1CCN(C(=O)Nc2ccc(Cl)c(Cl)c2)CC1 (centres unmarked) [Example 40, 2-[4-(1H-pyrrolo[3,2-c]pyridin-3-yl)cyclohexyl]amino-2-[N-(3,4-dichlorophenyl)piperidine-1-carboxamid-4-yl]-acetamide]
25	NC(=O)C(NC1CCC(c2c[nH]c3cccnc23)CC1)C1CCN(C(=O)/C=C/c2cc(F)c(F)c(F)c2)CC1 (single isomer, unassigned) [Example 39a, 2-[4-(1H-pyrrolo[3,2-b]pyridin-3-yl)cyclohexyl]amino-2-[1-(trans-3,4,5-trifluorocinnamoyl)-piperidin-4-yl]-acetamide]
635	COc1ccc(C2CCC(NC(C(N)=O)C3CCN(C(=O)/C=C/c4cc(F)c(F)c(F)c4)CC3)CC2)cn1 (stereo not drawn) [Example 50, 2-[4-(6-methoxypyridin-3-yl)cyclohexyl]amino-2-[1-(trans-3,4,5-trifluorocinnamoyl)-piperidin-4-yl]-acetamide]
600	NC(=O)C(NC1CCC(c2c[nH]c3cccnc23)CC1)C1CCN(C(=O)/C=C/c2cc(F)c(F)c(F)c2)CC1 (single isomer, unassigned) [Example 39b, 2-[4-(1H-pyrrolo[3,2-b]pyridin-3-yl)cyclohexyl]amino-2-[1-(trans-3,4,5-trifluorocinnamoyl)-piperidin-4-yl]-acetamide]
20	O=C(O)C(N[C@H]1CC[C@H](c2c[nH]c3ccccc32)CC1)C1CCN(C(=O)/C=C/c2cc(F)c(F)c(F)c2)CC1 (stereo partly drawn) [Example 26, 2-[4-(1H-Indol-3-yl)-cyclohexylamino]-2-[1-(trans-3,4,5-trifluorocinnamoyl)-piperidin-4-yl]-acetic acid hydrochloride]
130	NC(=O)C(NC1CCC(c2c[nH]c3ccccc23)CC1)C1CCN(C(=O)/C=C/c2ccc(Cl)cc2)CC1 (stereo not drawn) [Example 14, 2-[4-(1H-Indol-3-yl)-cyclohexylamino]-2-[1-(trans-4-chloro-cinnamoyl)piperidin-4-yl]-acetamide]
23	NC(=O)C(NC1CCC(c2c[nH]c3ccccc23)CC1)C1CCN(C(=O)/C=C/c2cccc(F)c2)CC1 (stereo not drawn) [Example 7, 2-[4-(1H-Indol-3-yl)-cyclohexylamino]-2-[1-(trans-3-fluorocinnamoyl)-piperidin-4-yl]-acetamide]
8	NC(=O)C(NC1CCC(c2c[nH]c3ccccc23)CC1)C1CCN(C(=O)Nc2ccc(Cl)c(Cl)c2)CC1 (single isomer, unassigned) [Example 4b, 2-[4-(1H-Indol-3-yl)-cyclohexylamino]-2-[N-(3,4-dichlorophenyl)piperidine-1-carboxamid-4-yl]-acetamide]
75	NC(=O)C(NC1CCC(c2c[nH]c3ccccc23)CC1)C1CCN(C(=O)/C=C/c2cccc(C(F)(F)F)c2)CC1 (stereo not drawn) [Example 10, 2-[4-(1H-Indol-3-yl)-cyclohexylamino]-2-[1-(trans-3-{trifluoromethyl}-cinnamoyl)piperidin-4-yl]-acetamide]
553	CCOC(=O)c1ccc(NC(=O)N2CCC(C(NC3CCC(c4c[nH]c5ccccc45)CC3)C(N)=O)CC2)cc1 (centres unmarked) [Example 22, 2-[4-(1H-Indol-3-yl)-cyclohexylamino]-2-[N-(4-{ethoxycarbonyl}-phenyl)piperidine-1-carboxamid-4-yl]-acetamide]
58	CCOC(=O)c1cccc(NC(=O)N2CCC(C(NC3CCC(c4c[nH]c5ccccc45)CC3)C(N)=O)CC2)c1 (centres unmarked) [Example 19, 2-[4-(1H-Indol-3-yl)-cyclohexylamino]-2-[N-(3-{ethoxycarbonyl}-phenyl)piperidine-1-carboxamid-4-yl]-acetamide]
641	NC(=O)C(NC1CCC(c2c[nH]c3ccncc23)CC1)C1CCN(C(=O)/C=C/c2ccc(F)cc2)CC1 (single isomer, unassigned) [Example 47b, 2-[4-(1H-pyrrolo[3,2-c]pyridin-3-yl)cyclohexyl]amino-2-[1-(trans-4-fluorocinnamoyl)-piperidin-4-yl]-acetamide]
807	NC(=O)C(NC1CCC(c2c[nH]c3ccccc23)CC1)C1CCN(C(=O)Nc2ccc(F)c(F)c2)CC1 (centres unmarked) [Example 32, 2-[4-(1H-Indol-3-yl)-cyclohexylamino]-2-[N-(3,4-difluorophenyl)piperidine-1-carboxamid-4-yl]-acetamide]
136	NC(=O)C(NC1CCC(c2c[nH]c3ccccc23)CC1)C1CCN(C(=O)/C=C/c2ccc(C(F)(F)F)cc2)CC1 (stereo not drawn) [Example 13, 2-[4-(1H-Indol-3-yl)-cyclohexylamino]-2-[1-(trans-4-{trifluoromethyl}-cinnamoyl)piperidin-4-yl]-acetamide]
220	O=C(O)C(N[C@H]1CC[C@H](c2c[nH]c3ccccc32)CC1)C1CCN(C(=O)/C=C/c2cc(F)cc(F)c2)CC1 (stereo partly drawn) [Example 25, 2-[4-(1H-Indol-3-yl)-trans-cyclohexylamino]-2-[1-(trans-3,5-difluorocinnamoyl)-piperidin-4-yl]-acetic acid hydrochloride]

SMILES	IC50 [nM]
COC(=O)C(NC1CCC(c2c[nH]c3ccccc23)CC1)C1CCN(C(=O)/C=C/c2cc(F)c(F)c(F)c2)CC1 (centres unmarked) [Example 49b]	750
COC(=O)C(NC1CCC(c2c[nH]c3ccccc23)CC1)C1CCN(C(=O)/C=C/c2cc(F)c(F)c(F)c2)CC1 (stereo not drawn) [Example 49a, Methyl 2-[4-(1H-indol-3-yl)-trans-cyclohexylamino]-2-[1-(trans-3,4,5-trifluorocinnamoyl)piperidin-4-yl]-acetate]	410
